Reference: EP4177246A1, “FUSED OXAZEPINES AS INHIBITORS OF PEROXIREDOXINS” (Centro Atlántico del Medicamento, SA, priority 2021, dated 2023)

Columns and labels:
PRDX1 [1] = target: T1, PRDX1 (Homo sapiens, UniProt Q06830); experiment: Competitive immunoprecipitation / immunoblot for PRDX1 with compound-coupled resin; type: binding; details: untreated MDA-MB-231 cell lysates; not trapped from lysates pre-treated with unbound compound
T1 construct: treatment of untreated MDA-MB-231 cell lysates with a resin coupled to compound 24; endogenous in cells; host or cells: MDA-MB-231 (ATCC HTB-26)
T1 sequence (Q06830 1-199): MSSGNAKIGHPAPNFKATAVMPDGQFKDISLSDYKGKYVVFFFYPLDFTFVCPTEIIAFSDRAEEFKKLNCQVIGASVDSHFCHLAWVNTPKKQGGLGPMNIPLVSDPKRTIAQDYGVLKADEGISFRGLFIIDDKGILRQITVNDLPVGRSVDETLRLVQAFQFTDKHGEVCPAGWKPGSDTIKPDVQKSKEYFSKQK
Description: As indicated in the brief description of the figures, the treatment of untreated MDA-MB-231 cell lysates with a resin coupled to compound 24 (24-coupled resin) were subjected to immunoprecipitation analysis for PRDX1 [for the methodology to perform immunoprecipitation and western blot analysis of PRDXs see Am J Physiol Heart Circ Physiol. 2008 Jul; 295(1): H425-H433 (ref. 34); and Oncogene. 2013 November 7; 32(45): 5302-5314 (ref. 35)].

[2] = tested on: JNK, p38, AKT, ERK1/2, STAT3; experiment: Immunoblot of phosphorylated MAPKs, STAT3 and Akt in treated TNBC cells; type: cell-based, human; details: MDA-MB-231 5 µM, 1 h, BT-549 1 µM, 3 h
Description: MDA-MB-231 cells were incubated with compound 24 (5 µM, 1 h), then washed with cold PBS-vanadate (1 mM). The same process was done with BT-549 cells with the exception that the cells were incubated with compound 24 at 1 µM of 3 h. PRDX1 knockdown cells, or compound 24 treated cells, were then lysed with cold RIPA containing protease and phosphatase inhibitors or with a buffer containing 20 mM Tris-HCI, pH = 7, 140 mM NaCl, 50 mM EDTA, 10% glycerol, 1% NP-40, and protease and phosphatase inhibitors. Lysates were centrifuged at 20,000 × g, at 4 °C for 10 min, and supernatants were collected. Protein concentration of lysis extracts was measured by BCA. Electrophoresis sample buffer containing 10% β-mercaptoethanol was added to 60 µg of extracts. In the case of non-reducing electrophoresis, cells were incubated with cold PBS containing 25 mM NEM for 30 min before lysis, and β-mercaptoethanol was omitted in the electrophoresis sample buffer. Samples were separated by sodium dodecyl sulfate - polyacrylamide gel electrophoresis (SDS-PAGE) and transferred onto nitrocellulose or PVDF (polyvinylidene difluoride) membranes. […] Protein bands were visualized with the Immun-Star Western chemiluminescence kit (Bio-rad) using the ChemiDoc XRS System and the image analysis program Quantity One (Bio-Rad). […]

MCF-7 = experiment: MTT cell viability assay, MCF-7 cells; type: cell-based; details: Homo sapiens, MCF7, 48 h drug exposure
Description: (§1) Cell viability was assayed by measuring the mitochondrial reduction of the tetrazolium salt 3-(4,5-methyltiazol-2yl)-2,5diphenyl-tetrazolium bromide] (MTT) (Applichen; A2231,0010) [Mosmann T. J Immunol Methods. 1983 16;65(1-2):55-63 (ref. 36); Chuan Y-C et al 2010. Oncogene. 29 (10), 1531-1542 (ref. 37)]. Cells were seeded in 96-well plates in medium (either RPMI, DMEM or McCoys depending on the recommendations from the ATCC) supplemented with 10% FBS (Lonza Cat. N°: 14-502F), 2mM L-Glut (Lonza Cat. N°: BE17-605E) and 100U/ml PEST (Lonza Cat. N°: DE17-605E) at a cell density of 1000-5000 cells/well (96 well plate). Cells were seeded at a density according to their exponential growth phase (normally 1000 to 5000/well). The cells were cultured at 37 °C in the dark in air containing 5% CO2. After 24h either vehicle (0.05% DMSO) or drug were added to culture medium at the indicated concentrations (10 to 0,01microM). After another 48 h, MTT (0.3 mg/ml) was added to cells, followed by incubation for 2-4h at 37 °C in the dark. The medium was then removed and the precipitated formazan was solubilized by the addition of DMSO (200 µL).
(§2) The optical density was measured at 595 nm with the iMark Microplate Reader (BioRad, USA). Data was expressed as percent growth above the level in controls and the results in figures were plotted as means ± SEM of each test point from 3 replicates.
(§3) Statistical analysis. The concentration of drug that provokes 50% reduction of cell viability (IC50) was determined by using non-linear regression analysis and data were fitted to a log concentration vs normalized response curve in GraphPad software v5 (San Diego, CA).

DU-145 = experiment: MTT cell viability assay, DU-145 cells; type: cell-based; details: Homo sapiens, 48 h drug exposure
Description: DU-145 [American Type Culture Collection (ATCC) reference number HTB-81]. This a human prostate cancer cell line derived from a metastatic site (brain) of a person.
as §1, §2, §3

PANC-1 = experiment: MTT cell viability assay, PANC-1 cells; type: cell-based; details: Homo sapiens, 48 h drug exposure
Description: PANC-1 [American Type Culture Collection (ATCC) reference number CRL-1469]. This a human cancer cell line derived from the pancreas of a person.
as §1, §2, §3

PRDX1 [3] = target: T1, PRDX1; experiment: Western blot of monomeric/dimeric and oxidized forms of PRDX1 in treated cells; type: cell-based; details: 1 µM, MDA-MB-231 cells
Description: To that end, compound 24 1 µM was added to MDA-MB-231 cells and followed by Western Blot analysis. β-actin was used as control.
Non-reducing and reducing conditions used are those commonly used to assess the status of PRDX1 (see ref. 34 and 35) ref. 35

Compound: O=C1C2=C(C(=O)c3c(O)ccc(O)c31)N(c1cccnc1)Cc1ccccc1O2 [Compound 24, 7,10-dihydroxy-12-(pyridin-3-yl)-12,13-dihydrobenzo[f]naphtho[2,3-b][1,4]oxazepine-6,11-dione]
- trapping of PRDX1 by compound-coupled resin (PRDX1 [1]): PRDX1 was clearly trapped by the 24-coupled resin
- activation of STAT3 [2]: a decrease in the activation of STAT3
- levels of activated JNK, p38, AKT and ERK1/2 [2]: an increase in the levels of activated JNK, p38, AKT and ERK1/2
- IC50 (MCF-7): 1.72 µM
- IC50 (DU-145): 3.19 µM
- IC50 (PANC-1): 0.32 µM
- conversion of PRDX1 monomeric form into dimeric form (PRDX1 [3]; non-reducing conditions): a rapid conversion of PRDX1 from its basal active monomeric form, into its inactive dimeric form
- levels of hyperoxidized PRDX1 (SO2/3-Prdx) (PRDX1 [3]; reducing conditions): a significant increase in the levels of inactive hyperoxidized 2-cystiene PRDX1
